# Assay results reported in paper PMC10928712, “High Target Homology Does Not Guarantee Inhibition: Aminothiazoles Emerge as Inhibitors of Plasmodium falciparum” (ACS Infectious Diseases, 2024).
# Several values for one entry are separate records, joined by “and”; a condition that tells them apart may be missing. Equal values may be shown once.
# Columns and labels:
# P. falciparum 3D7 [1] = test: Method III growth inhibition assay (HRP2-ELISA, 3 days), 3D7; assay type: cell-based, Plasmodium falciparum
# P. falciparum Dd2 = test: Method III growth inhibition assay (HRP2-ELISA, 3 days), Dd2; assay type: cell-based, Plasmodium falciparum
# P. falciparum 3D7 [2] = test: Method II growth-inhibition assay (PicoGreen, 3 days), 3D7; assay type: cell-based; conditions: Plasmodium falciparum; 3D7, method II; read-out: IC50 3D7-II
# Text: (§1) Fidock (Columbia University).
# P. falciparum NF54 [3] = test: Method II growth-inhibition assay (PicoGreen, 3 days), NF54; assay type: cell-based; conditions: Plasmodium falciparum; chloroquine-sensitive NF54, method II
# Text: as §1
# P. falciparum NF54 [4] = test: IDP rescue assay, P. falciparum NF54; assay type: cell-based; conditions: Plasmodium falciparum
# Procedure: (§2) Fidock (Columbia University). […] P. falciparum cultures were treated as described in method II. For IDP (Isoprenoids.com) rescue experiments, 125 μM IDP was added to the appropriate wells for the duration of the experiment. The well-described DXR inhibitor FSM was used as a positive control. IC50 values were calculated by nonlinear regression analysis using GraphPad Prism software. All experiments were performed at least in triplicate, and data reported represent the mean ± SD.
# P. falciparum 3D7 [5] = test: IDP rescue assay, P. falciparum 3D7; assay type: cell-based; conditions: Plasmodium falciparum
# Procedure: as §2
# Hep G2 cells = test: Hep G2 viability assay (counter screen); assay type: cell-based, human; conditions: Homo sapiens, HepG2; at 10 μM
# Procedure: HepG2 cells (2 × 10^5 cells per well) were seeded in 24-well, flat-bottomed plates. Culturing of cells, incubations, and OD measurements were performed as described previously with small modifications.[58] 24 h after seeding the cells, the incubation was started by the addition of compounds in a final DMSO concentration of 1%. The metabolic activity of the living cell mass was determined after 48 h. At least three independent measurements were performed for each compound. The IC50 values were determined during logarithmic growth using GraphPad Prism software. All experiments were performed at least in triplicate, and data reported represent the mean ± SD.
# [6] = 3D7, method III (HRP2 assay), drc package of R, read-out: IC50 P. falciparum 3D7 (method III)
# [7] = table of compounds as SMILES with biological activity, strain not given, values match 3D7 method III, read-out: IC50
# [8] = chloroquine-resistant Dd2, method III
# [9] = Plasmodium falciparum, 3D7, table of compounds as SMILES with biological activity, strain not given, values match 3D7 method III, read-out: IC50
# [10] = Plasmodium falciparum, 3D7, 3D7, method III (HRP2 assay), drc package of R, read-out: IC50 P. falciparum 3D7 (method III)
# [11] = Plasmodium falciparum, DD2, chloroquine-resistant Dd2, method III
Compound,IC50 (P. falciparum 3D7 [1]; [6]),IC50 (P. falciparum 3D7 [1]; [9]),IC50 (P. falciparum 3D7 [1]; [10]),IC50 (P. falciparum Dd2; [11]),also measured
"2′,4′-Dimethyl-N-(4-(trifluoromethyl)phenyl)-[5,5′-bithiazol]-2-amine [compound 41]",~10 µM and 10 µM,,,,IC50 (P. falciparum 3D7 [1]; [7]): 9.5 µM; IC50 (P. falciparum Dd2; [8]): 5 µM
"4-(2-((4-(Trifluoromethyl)phenyl)amino)thiazol-5-yl)benzene-1,3-diol [compound 38]",22 ± 6 µM,,,,IC50 (P. falciparum 3D7 [1]; [7]): 22.1 µM
5-(Pyridin-4-yl)-N-(4-(trifluoromethyl)phenyl)thiazol-2-amine [compound 36],34 ± 2 µM,,,,IC50 (P. falciparum 3D7 [1]; [7]): 34.2 µM
"COc1ccc(C(Cc2ccc(Cl)cc2)=NO)cn1 [7E, 2-(4-Chlorophenyl)-1-(6-methoxypyridin-3-yl)ethan-1-one oxime]",44 ± 10 µM,43.6 µM,,,IC50 (P. falciparum Dd2; [8]): > 55 µM
"COc1ccc(C(Cc2ccc(Cl)cc2)=NO)cn1 [7Z, 2-(4-Chlorophenyl)-1-(6-methoxypyridin-3-yl)ethan-1-one oxime]",> 111 µM,,,,IC50 (P. falciparum Dd2; [8]): > 111 µM
"ON=C(Cc1ccc(Cl)cc1)c1ccc(O)nc1 [8E, 2-(4-Chlorophenyl)-1-(6-hydroxypyridin-3-yl)ethan-1-one oxime]",> 111 µM,,,,IC50 (P. falciparum Dd2; [8]): > 111 µM
"ON=C(Cc1ccc(Cl)cc1)c1ccc(O)nc1 [8Z, 2-(4-Chlorophenyl)-1-(6-hydroxypyridin-3-yl)ethan-1-one oxime]",> 28 µM,,,,IC50 (P. falciparum Dd2; [8]): > 28 µM
"O=CN(O)CCCP(=O)(O)O [FSM, fosmidomycin, reference compound]",,,,,"IC50 (P. falciparum 3D7 [2]): 0.9 ± 0.2 µM; IC50 (P. falciparum NF54 [3]): 0.7 ± 0.3 µM; IC50 (P. falciparum NF54 [4]; NF54, 72 h, + IDP (125 μM)): 7.8 ± 0.3 µM; IC50 (P. falciparum NF54 [4]; NF54, without IDP): 0.9 ± 0.5 µM; IC50 (P. falciparum 3D7 [5]; 3D7, 72 h, + IDP (125 μM)): 37.4 ± 18.2 µM; IC50 (P. falciparum 3D7 [5]; 3D7, without IDP): 0.9 ± 0.4 µM"
COc1ccc(C(Cc2ccc(Cl)cc2)=NO)c(O)c1 [compound 9],,46.8 µM,47 ± 15 µM,24 ± 6 µM,
"CON=C(Cc1ccc(Cl)cc1)c1ccc(O)cc1O [compound 11, (E)-2-(4-Chlorophenyl)-1-(2,4-dihydroxyphenyl)ethan-1-one o-Methyl Oxime]",,,28 ± 9 µM,19 ± 3 µM,
NN=C(Cc1ccc(Cl)cc1)c1ccc(O)cc1O [compound 12],,,16 µM,14 ± 5 µM,IC50 (P. falciparum 3D7 [2]): 46 ± 3 µM; IC50 (P. falciparum NF54 [3]): 45 ± 7 µM
"OCc1cn(Cc2ccc(Cl)c(Cl)c2)c2ncccc12 [compound 14, (1-(3,4-Dichlorobenzyl)-1H-pyrrolo[2,3-b]pyridin-3-yl)methanol]",,,> 111 µM,91 ± 18 µM,
"OCc1cn(-c2ccc(Cl)c(Cl)c2)c2ccccc12 [compound 15, (1-(3,4-Dichlorophenyl)-1H-indol-3-yl)methanol]",,55.5 µM,> 56 µM,54 ± 6 µM,
COc1cccc2c(CO)cn(Cc3ccc(Cl)c(Cl)c3)c12 [compound 16],,55.5 µM,> 56 µM,48 ± 13 µM,
N#Cc1ccc2c(CO)cn(Cc3ccc(Cl)c(Cl)c3)c2c1 [compound 17],,43.8 µM,44 ± 19 µM,44 ± 9 µM,
"OCc1nn(Cc2ccc(Cl)c(Cl)c2)c2ccccc12 [compound 18, (1-(3,4-Dichlorobenzyl)-1H-indazol-3-yl)methanol]",,33.9 µM,34 µM,70 ± 21 µM,
"OCCc1cn(Cc2ccc(Cl)c(Cl)c2)c2ccccc12 [compound 19, 2-(1-(3,4-Dichlorobenzyl)-1H-indol-3-yl)ethan-1-ol]",,28.9 µM,29 ± 1 µM,12 ± 3 µM,
OCc1cn(Cc2ccc(Cl)cc2)c2ccccc12 [compound 20],,27.2 µM,28 ± 14 µM,22 ± 5 µM,
"COc1ccc2c(c1)c(CO)cn2Cc1ccc(Cl)c(Cl)c1 [compound 21, (1-(3,4-Dichlorobenzyl)-5-methoxy-1H-indol-3-yl)methanol]",,18.5 µM,19 ± 1 µM,54 ± 6 µM,
"COc1cccc2c1c(CO)cn2Cc1cccc(Cl)c1 [compound 22, (1-(3-Chlorobenzyl)-4-methoxy-1H-indol-3-yl)methanol]",,13.8 µM,16 ± 3 µM,14 ± 4 µM,IC50 (P. falciparum 3D7 [1]; [7]): 15.6 µM
"OCc1cn(Cc2ccc(Cl)c(Cl)c2)c2c(Cl)cccc12 [compound 23, (7-Chloro-1-(3,4-dichlorobenzyl)-1H-indol-3-yl)methanol]",14 ± 1 µM,,13 µM,36 ± 16 µM,

Compound,IC50 (P. falciparum 3D7 [1]; [6]),IC50 (P. falciparum 3D7 [1]; [9]),IC50 (P. falciparum 3D7 [1]; [10]),IC50 (P. falciparum Dd2; [11]),also measured
"OCc1cn(Cc2cccc(Cl)c2)c2cccc(F)c12 [compound 24, (1-(3-Chlorobenzyl)-4-fluoro-1H-indol-3-yl)methanol]",,,12 ± 1 µM,10 ± 1 µM,
"OCc1cn(Cc2ccccc2)c2cccc(F)c12 [compound 25, (1-Benzyl-4-fluoro-1H-indol-3-yl)methanol]",,11.9 µM,12 ± 2 µM,9 µM,
"Cc1cn(Cc2ccc(Cl)c(Cl)c2)c2ccccc12 [compound 26, 1-(3,4-Dichlorobenzyl)-3-methyl-1H-indole]",10.2 µM,,~10 µM,11 ± 5 µM,
"OCc1cn(Cc2ccc(Cl)c(Cl)c2)c2cc(F)ccc12 [compound 27, (1-(3,4-Dichlorobenzyl)-6-fluoro-1H-indol-3-yl)methanol]",9 ± 2 µM,8.9 µM,< 10 µM,10 ± 5 µM,
"Clc1ccc(Cn2ccc3ccccc32)cc1Cl [compound 28, 1-(3,4-Dichlorobenzyl)-1H-indole]",8.1 µM,,~8 µM,18 ± 7 µM,
"O=[N+]([O-])c1ccc2c(c1)c(CO)cn2Cc1ccc(Cl)c(Cl)c1 [compound 29, (1-(3,4-Dichlorobenzyl)-5-nitro-1H-indol-3-yl)methanol]",7 µM,7.2 µM,< 10 µM,4 ± 1 µM,
"OCc1cn(Cc2ccccc2)c2ccc(Br)cc12 [compound 30, (1-Benzyl-5-bromo-1H-indol-3-yl)methanol]",6 ± 1 µM,6.1 µM,< 10 µM,5 ± 3 µM,
"COc1cccc2c1c(CO)cn2Cc1ccc(Cl)c(Cl)c1 [compound 31, (1-(3,4-Dichlorobenzyl)-4-methoxy-1H-indol-3-yl)methanol]",,5.5 µM,6 ± 2 µM,5 ± 2 µM,
OCc1cn(Cc2ccc(Cl)c(Cl)c2)c2ccc(F)cc12 [compound 32],5 ± 1 µM,5.3 µM,< 10 µM,8 ± 2 µM,
"COc1ccc(CNCc2cn(Cc3ccc(Cl)c(Cl)c3)c3ccccc23)c(OC)c1 [compound 34, 1-(1-(3,4-Dichlorobenzyl)-1H-indol-3-yl)-N-(2,4-dimethoxybenzyl)methan-amine]",,,,21 ± 6 µM,inhibition at 10 µM (Hep G2 cells): 90%
Cc1nc(N)sc1-c1csc(Nc2ccccc2C(F)(F)F)n1 [compound 35],,,43 ± 2 µM,48 ± 12 µM,
Oc1ccc(-c2csc(Nc3cccc(C(F)(F)F)c3)n2)c(O)c1 [compound 37],,,23 ± 1 µM,19 ± 2 µM,
"Cc1ccc(Nc2nc(-c3ccc(O)c(O)c3)cs2)cc1C [compound 42, 4-(2-((3,4-Dimethylphenyl)amino)thiazol-4-yl)benzene-1,2-diol]",,4.4 µM,4 ± 1 µM,7 ± 1 µM,
"Cc1ccc(C)c(Nc2nc(-c3ccccn3)cs2)c1 [compound 43, N-(2,5-Dimethylphenyl)-4-(pyridin-2-yl)thiazol-2-amine]",,3.7 µM,4 ± 2 µM,5 ± 1 µM,
Cc1nc(N)sc1-c1csc(Nc2cccc(C(F)(F)F)c2)n1 [compound 45],,2.5 µM,3 µM,5 µM,
"Cc1ccc(Nc2nc(-c3ccccn3)cs2)cc1C [compound 46, N-(3,4-Dimethylphenyl)-4-(pyridin-2-yl)thiazol-2-amine]",,1.5 µM,2 ± 1 µM,2 µM,"IC50 (P. falciparum 3D7 [2]): 2 µM; IC50 (P. falciparum NF54 [3]): 2 ± 1 µM; IC50 (P. falciparum NF54 [4]; NF54, 72 h, + IDP (125 μM)): 1.2 µM; IC50 (P. falciparum NF54 [4]; NF54, without IDP): 2.1 ± 0.8 µM; IC50 (P. falciparum 3D7 [5]; 3D7, 72 h, + IDP (125 μM)): 2.8 µM; IC50 (P. falciparum 3D7 [5]; 3D7, without IDP): 2.3 ± 0.4 µM"
Cc1nc(N)sc1-c1csc(Nc2ccc(Cl)cn2)n1 [compound 47],,,1 µM,2 µM,"IC50 (P. falciparum 3D7 [2]): 2 ± 1 µM; IC50 (P. falciparum NF54 [3]): 2 µM; IC50 (P. falciparum NF54 [4]; NF54, 72 h, + IDP (125 μM)): 1.2 µM; IC50 (P. falciparum NF54 [4]; NF54, without IDP): 1.6 ± 0.3 µM; IC50 (P. falciparum 3D7 [5]; 3D7, 72 h, + IDP (125 μM)): 2.2 µM; IC50 (P. falciparum 3D7 [5]; 3D7, without IDP): 2 ± 0.7 µM"
N-(3-Chloro-2-methylphenyl)-5-(pyridin-2-yl)thiazol-2-amine [compound 44],3 µM,,,,IC50 (P. falciparum 3D7 [1]; [7]): 2.8 µM; IC50 (P. falciparum Dd2; [8]): 2 ± 1 µM
"N^2-(3-Chloro-2-methylphenyl)-4′-methyl-[5,5′-bithiazole]-2,2′-diamine [compound 40]",16 ± 2 µM,,,,IC50 (P. falciparum 3D7 [1]; [7]): 15.9 µM
"N^2-(3-Methoxyphenyl)-4′-methyl-[5,5′-bithiazole]-2,2′-diamine [compound 39]",18 µM,,,,IC50 (P. falciparum 3D7 [1]; [7]): 17.9 µM
